The nature of data set [1]: Particle Size Analysis by Sieve Method. The conditions noted are these: non-micronized metaxalone. It counts as physicochemical. From the text:
The Sieve Method refers to the method for particle size analysis described in American Society for Testing and Materials (ASTM) standard C 136 (in effect on Jan. 1, 2019). In the method a representative weighed sample is poured into the top sieve which has the largest screen openings. Each lower sieve in the column has smaller openings than the one above. At the base is a round pan, called the receiver. The column is typically placed in a mechanical shaker. such as the sonic sifter available from Endecotts (London, UK). See Endecotts website at https://www.endecotts.com/products/sieve-shakers/sonic-sifter/product-specifications/. The shaker shakes the column, usually for some fixed amount of time. After the shaking is complete the material on each sieve is weighed. The mass of the sample of each sieve is then divided by the total mass to give a percentage retained on each sieve. The size of the average particle on each sieve is then analyzed to get a cut-off point or specific size range, which is then captured on a screen. Tables 2a and 2b describes representative particle sizes for the micronized and non-micronized metaxalone particles used in the formulation of Table 1. [table]

Data set [2] is described as follows: Particle Size Analysis by Malvern Method. The following applies: micronized metaxalone. It counts as physicochemical. The source says:
In one subembodiment, when the formulation is characterized based on metaxalone particle size, at least 50%, 70%, or 90% of the micronized particles of metaxalone are smaller than 200, 100, or 75 microns when tested according to the Malvern Method (i.e. laser diffraction). Alternatively or in addition, at least 30%, 40%, or 50% of the micronized particles are less than 50, 30, or 20 microns. when tested according to the Malvern Method. Tables 2a and 2b describes representative particle sizes for the micronized and non-micronized metaxalone particles used in the formulation of Table 1. [table]

Consider four compounds from patent publication US20230310387A1, “Reduced Dose Metaxalone Formulations” (Primus Pharmaceuticals, Inc., priority 2023, published 2023).

As to `Cc1cc(C)cc(OCC2CNC(=O)O2)c1` (single isomer, unassigned) [Lot2b, metaxalone], in data set [1], the “% Retained on Sieve # 30” value is on record as 1%, the “% Retained on Sieve # 120” value was determined as 49% and the “% Retained on Sieve # 325” value was 30%.

Take `Cc1cc(C)cc(OCC2CNC(=O)O2)c1` (stereo not drawn) [Lot2a, metaxalone]: in data set [2], the “10% of the Particles (d10)” value was found to be 0.81 µ, the “50% of the Particles (d50)” value came to 10.11 µ and the “90% of the Particles (d90)” value is 49.91 µ.

As for `Cc1cc(C)cc(OCC2CNC(=O)O2)c1` (single isomer, unassigned) [Lot2d, metaxalone], in data set [1], the “% Retained on Sieve # 30” value is recorded as 1%, the “% Retained on Sieve # 120” value worked out at 61% and the “% Retained on Sieve # 325” value is 28%.

On to `Cc1cc(C)cc(OCC2CNC(=O)O2)c1` (single isomer, unassigned) [Lot2c, metaxalone], for which, in data set [1], the “% Retained on Sieve # 30” value was determined as 1%, the “% Retained on Sieve # 120” value is 63% and the “% Retained on Sieve # 325” value was found to be 29%.
